Reference: PubChem BioAssay AID180 (DTP/NCI, 2004)
Values joined by “and” are separate entries in the source; they are usually repeats but may differ in a detail not shown here. Equal values may be shown once.

Test system: BDF1 mice, Adenocarcinoma 755 s.c., tumor weight T/C
Assay: NCI In Vivo Anticancer Drug Screen. Data for tumor model Adenocarcinoma 755 (subcutaneous) in B6D2F1 (BDF1) mice
Details: endpoint: mean tumor weight, higher = larger tumour
Procedure: The antitumor activity of compounds was measured in mice bearing transplantable tumors. Survival or tumor size were measured and the results are expressed as the measurement made in the treated group (T) divided by the measurement made in the vehicle treated control group (C). The tumor model used in this assay is Adenocarcinoma 755 (subcutaneous) in B6D2F1 (BDF1) mice

[1] = dose: 50.0 mg/kg/injection, schedule: Q01DX011 (ip), vehicle: methylcellulose (MC)
[2] = dose: 100.0 mg/kg/injection, schedule: Q01DX011 (ip), vehicle: methylcellulose (MC)
[3] = dose: 25.0 mg/kg/injection, schedule: Q01DX011 (ip), vehicle: carboxymethylcellulose (CMC)
[4] = dose: 50.0 mg/kg/injection, schedule: Q01DX011 (ip), vehicle: carboxymethylcellulose (CMC)
[5] = dose: 75.0 mg/kg/injection, schedule: Q01DX011 (ip), vehicle: carboxymethylcellulose (CMC)
[6] = dose: 62.5 mg/kg/injection, schedule: Q01DX011 (ip), vehicle: carboxymethylcellulose (CMC)
[7] = dose: 75.0 mg/kg/injection, schedule: Q01DX011 (ip), vehicle: saline
[8] = dose: 31.0 mg/kg/injection, schedule: Q01DX011 (ip), vehicle: carboxymethylcellulose (CMC)
[9] = dose: 62.0 mg/kg/injection, schedule: Q01DX011 (ip), vehicle: carboxymethylcellulose (CMC)
[10] = dose: 15.0 mg/kg/injection, schedule: Q01DX011 (ip), vehicle: methylcellulose (MC)
[11] = dose: 31.0 mg/kg/injection, schedule: Q01DX011 (ip), vehicle: methylcellulose (MC)
[12] = dose: 62.0 mg/kg/injection, schedule: Q01DX011 (ip), vehicle: methylcellulose (MC)
[13] = dose: 125.0 mg/kg/injection, schedule: Q01DX011 (ip), vehicle: methylcellulose (MC)
[14] = dose: 250.0 mg/kg/injection, schedule: Q01DX011 (ip), vehicle: methylcellulose (MC)
[15] = dose: 5.0 mg/kg/injection, schedule: Q01DX011 (ip), vehicle: carboxymethylcellulose (CMC)
[16] = dose: 20.0 mg/kg/injection, schedule: Q01DX011 (ip), vehicle: carboxymethylcellulose (CMC)

Compound: Cn1c(=O)c2c(n(C)c1=O)[n+]([O-])c([N+]1([O-])CCOCC1)n2C
- T/C (dose: 30.0 mg/kg/injection, schedule: Q01DX011 (ip), vehicle: methylcellulose (MC)): 91 % of control
- T/C (dose: 60.0 mg/kg/injection, schedule: Q01DX011 (ip), vehicle: methylcellulose (MC)): 100 % of control
- T/C (dose: 120.0 mg/kg/injection, schedule: Q01DX011 (ip), vehicle: methylcellulose (MC)): 95 % of control
- T/C (dose: 240.0 mg/kg/injection, schedule: Q01DX011 (ip), vehicle: methylcellulose (MC)): 95 % of control

Compound: O=C(CCBr)NCCNC(=O)CCBr
- T/C [1]: 15 % of control
- T/C [2]: 3 % of control

Compound: CC[N+](C)(C)c1ncnc2nc[nH]c12
- T/C (dose: 12.0 mg/kg/injection, schedule: Q01DX011 (ip), vehicle: carboxymethylcellulose (CMC)): 88 % of control
- T/C (dose: 17.0 mg/kg/injection, schedule: Q01DX011 (ip), vehicle: carboxymethylcellulose (CMC)): 80 % of control
- T/C [3]: 47 % of control and 52 % of control
- T/C (dose: 37.0 mg/kg/injection, schedule: Q01DX011 (ip), vehicle: carboxymethylcellulose (CMC)): 33 % of control
- T/C [4]: 22 % of control
- T/C [5]: 6 % of control
- T/C (dose: 100.0 mg/kg/injection, schedule: Q01DX011 (ip), vehicle: carboxymethylcellulose (CMC)): 3 % of control

Compound: Cc1ccc2c(c1)Sc1ccc3ccccc3c1N2
- T/C (dose: 12.5 mg/kg/injection, schedule: Q01DX011 (ip), vehicle: carboxymethylcellulose (CMC)): 57 % of control
- T/C (dose: 15.0 mg/kg/injection, schedule: Q01DX011 (ip), vehicle: saline): 94 % of control
- T/C (dose: 22.0 mg/kg/injection, schedule: Q01DX011 (ip), vehicle: saline): 42 % of control
- T/C [3]: 27 % of control
- T/C (dose: 33.0 mg/kg/injection, schedule: Q01DX011 (ip), vehicle: saline): 36 % of control
- T/C [4]: 26 % of control and 42 % of control
- T/C (dose: 50.0 mg/kg/injection, schedule: Q01DX011 (ip), vehicle: saline): 26 % of control and 51 % of control
- T/C [6]: 58 % of control
- T/C [5]: 37 % of control
- T/C [7]: 28 % of control
- T/C (dose: 112.0 mg/kg/injection, schedule: Q01DX011 (ip), vehicle: carboxymethylcellulose (CMC)): 43 % of control
- T/C (dose: 112.0 mg/kg/injection, schedule: Q01DX011 (ip), vehicle: saline): 14 % of control
- T/C (dose: 168.0 mg/kg/injection, schedule: Q01DX011 (ip), vehicle: carboxymethylcellulose (CMC)): 18 % of control and 22 % of control
- T/C (dose: 168.0 mg/kg/injection, schedule: Q01DX011 (ip), vehicle: saline): 14 % of control
- T/C (dose: 335.0 mg/kg/injection, schedule: Q01DX011 (ip), vehicle: carboxymethylcellulose (CMC)): 10 % of control

Compound: CCn1cnc2ncnc(SCc3ccccc3)c21
- T/C (dose: 16.0 mg/kg/injection, schedule: Q01DX011 (ip), vehicle: carboxymethylcellulose (CMC)): 107 % of control
- T/C [8]: 89 % of control
- T/C [9]: 46 % of control

Compound: CCC(C)N1C(=O)CCC1=O (stereo not given)
- T/C (dose: 37.5 mg/kg/injection, schedule: Q01DX011 (ip), vehicle: saline): 26 % of control
- T/C [7]: 58 % of control
- T/C (dose: 150.0 mg/kg/injection, schedule: Q01DX011 (ip), vehicle: saline): 95 % of control
- T/C (dose: 300.0 mg/kg/injection, schedule: Q01DX011 (ip), vehicle: saline): 99 % of control

Compound: O=c1[nH]cc(Br)c(=S)[nH]1
- T/C [10]: 64 % of control
- T/C [11]: 86 % of control
- T/C [12]: 80 % of control
- T/C [13]: 119 % of control
- T/C [14]: 109 % of control

Compound: NC1C(O)C(O)C(Nc2ncnc3nc[nH]c23)OC1C(O)CO (stereo not given)
- T/C (dose: 0.18 mg/kg/injection, schedule: Q## X000 (ip), vehicle: carboxymethylcellulose (CMC)): 65 % of control
- T/C (dose: 0.35 mg/kg/injection, schedule: Q## X000 (ip), vehicle: carboxymethylcellulose (CMC)): 65 % of control
- T/C (dose: 0.7 mg/kg/injection, schedule: Q## X000 (ip), vehicle: carboxymethylcellulose (CMC)): 67 % of control
- T/C (dose: 1.35 mg/kg/injection, schedule: Q## X000 (ip), vehicle: carboxymethylcellulose (CMC)): 107 % of control

Compound: Nc1nc(=S)cc(Nc2cccc(Cl)c2)[nH]1
- T/C [10]: 91 % of control
- T/C [12]: 87 % of control
- T/C [13]: 51 % of control

Compound: CCCCCCOP(=O)(N1CC1C)N1CC1C (stereo not given)
- T/C (dose: 12.5 mg/kg/injection, schedule: Q01DX011 (ip), vehicle: saline): 100 % of control
- T/C (dose: 100.0 mg/kg/injection, schedule: Q01DX011 (ip), vehicle: saline): 13 % of control and 19 % of control and 26 % of control

Compound: CC(=O)[C@H]1CC[C@H]2[C@@H]3C[C@H](C)C4=CC(=O)CC[C@]4(C)[C@H]3C(=O)C[C@]12C
- T/C (dose: 25.0 mg/kg/injection, schedule: Q01DX011 (sc), vehicle: steriod suspending solution): 65 % of control
- T/C (dose: 50.0 mg/kg/injection, schedule: Q01DX011 (sc), vehicle: steriod suspending solution): 78 % of control
- T/C (dose: 200.0 mg/kg/injection, schedule: Q01DX011 (sc), vehicle: steriod suspending solution): 35 % of control and 43 % of control
- T/C (dose: 400.0 mg/kg/injection, schedule: Q01DX011 (sc), vehicle: steriod suspending solution): 21 % of control
- T/C (dose: 800.0 mg/kg/injection, schedule: Q01DX011 (sc), vehicle: steriod suspending solution): 30 % of control

Compound: CN(C)/N=N/c1nc[nH]c1C(N)=O
- T/C [15]: 79 % of control
- T/C (dose: 10.0 mg/kg/injection, schedule: Q01DX011 (ip), vehicle: carboxymethylcellulose (CMC)): 59 % of control
- T/C (dose: 12.0 mg/kg/injection, schedule: Q01DX011 (ip), vehicle: methylcellulose (MC)): 50 % of control
- T/C (dose: 16.0 mg/kg/injection, schedule: Q01DX011 (ip), vehicle: methylcellulose (MC)): 54 % of control
- T/C [16]: 53 % of control and 57 % of control
- T/C (dose: 20.0 mg/kg/injection, schedule: Q01DX011 (ip), vehicle: saline): 64 % of control
- T/C (dose: 25.0 mg/kg/injection, schedule: Q01DX011 (ip), vehicle: methylcellulose (MC)): 37 % of control
- T/C [8]: 52 % of control
- T/C [11]: 62 % of control
- T/C (dose: 40.0 mg/kg/injection, schedule: Q01DX011 (ip), vehicle: saline): 63 % of control
- T/C [1]: 30 % of control
- T/C [9]: 47 % of control
- T/C [12]: 94 % of control
- T/C [6]: 55 % of control
- T/C (dose: 80.0 mg/kg/injection, schedule: Q01DX011 (ip), vehicle: saline): 30 % of control
- T/C [2]: 22 % of control
- T/C (dose: 160.0 mg/kg/injection, schedule: Q01DX011 (ip), vehicle: saline): 17 % of control
- T/C (dose: 600.0 mg/kg/injection, schedule: Q01DX011 (ip), vehicle: saline): 3 % of control

Compound: O=c1[nH]c2cnc(Cl)nc2[nH]1
- T/C (dose: 30.0 mg/kg/injection, schedule: Q01DX011 (ip), vehicle: carboxymethylcellulose (CMC)): 116 % of control
- T/C (dose: 60.0 mg/kg/injection, schedule: Q01DX011 (ip), vehicle: carboxymethylcellulose (CMC)): 85 % of control
- T/C (dose: 120.0 mg/kg/injection, schedule: Q01DX011 (ip), vehicle: carboxymethylcellulose (CMC)): 168 % of control

Compound: CC1(C)N=C(N)N=C(N)N1c1cccc(Cl)c1
- T/C (dose: 1.15 mg/kg/injection, schedule: Q01DX011 (ip), vehicle: carboxymethylcellulose (CMC)): 89 % of control
- T/C (dose: 2.3 mg/kg/injection, schedule: Q01DX011 (ip), vehicle: carboxymethylcellulose (CMC)): 72 % of control
- T/C (dose: 4.6 mg/kg/injection, schedule: Q01DX011 (ip), vehicle: carboxymethylcellulose (CMC)): 121 % of control
- T/C (dose: 9.2 mg/kg/injection, schedule: Q01DX011 (ip), vehicle: carboxymethylcellulose (CMC)): 88 % of control

Compound: CC(C)CN1CC(C)C(=O)N(c2ccccc2)C1=O (stereo not given)
- T/C [10]: 61 % of control
- T/C [11]: 66 % of control
- T/C [12]: 73 % of control
- T/C [13]: 75 % of control
- T/C [14]: 68 % of control

Compound: Nc1nc(SC2CCCCC2)c2[nH]cnc2n1
- T/C (dose: 1.0 mg/kg/injection, schedule: Q01DX011 (ip), vehicle: carboxymethylcellulose (CMC)): 60 % of control
- T/C [15]: 83 % of control
- T/C [16]: 4 % of control and 9 % of control
- T/C (dose: 40.0 mg/kg/injection, schedule: Q01DX011 (ip), vehicle: carboxymethylcellulose (CMC)): 1 % of control
- T/C (dose: 80.0 mg/kg/injection, schedule: Q01DX011 (ip), vehicle: carboxymethylcellulose (CMC)): 1 % of control
- T/C (dose: 160.0 mg/kg/injection, schedule: Q01DX011 (ip), vehicle: carboxymethylcellulose (CMC)): 2 % of control
